Reference: PMC5421785, “Citrullination only infrequently impacts peptide binding to HLA class II MHC” (PLoS ONE, 2017)
Where two headings read alike, the source gives them in different places. Square brackets hold non-standard residues; d marks the D form. Peptide text beside a SMILES is read from it. Cit = NC(=O)NCCC[C@H](N)C(=O)O

Columns and labels:
[1] = biological target: T1, HLA-DRB1*01:01 (Homo sapiens, UniProt P01903+P01911, A100R/D57E/F55L/F60I/F76Y/I96L/L162R/M171V/P40L/Q125E/R42F/V115G/Y59C); test: HLA class II peptide binding, inhibition of radiolabeled peptide binding to purified MHC; conditions: read-out: DRB1*01:01 binding capacity, Cit peptide (IC50 nM)
T1 construct: EBV transformed homozygous cell lines were used as sources of MHC molecules; endogenous in cells; host or cells: EBV transformed homozygous cell lines

[2] = biological target: T2, HLA-DRB1*04:01 (Homo sapiens, UniProt P01903+P01911, A100K/A169T/F76Y/I96L/K127E/L162R/M171V/N62H/P40V/Q125Y/R42H/S133A/S149N/S66Y/V115G/V209L/W38E); test: as above; conditions: read-out: DRB1*04:01 binding capacity, Cit peptide (IC50 nM)
T2 construct: EBV transformed homozygous cell lines were used as sources of MHC molecules; endogenous in cells; host or cells: EBV transformed homozygous cell lines

[3] = citrullinated 15-mer peptide (X = citrulline), purified HLA-DRB1*01:01
[4] = citrullinated 15-mer peptide (X = citrulline), purified HLA-DRB1*04:01
[5] = citrullinated 15-mer (X), purified MHC, inhibition of radiolabeled peptide binding, dash = IC50 >40,000 nM

Row | SMILES | IC50 [1, 3] | IC50 [2, 4] | IC50 [1, 5] | IC50 [2, 5]
1 | CC[C@H](C)[C@H](NC(=O)[C@H](CCCNC(=N)N)NC(=O)[C@H](CO)NC(=O)[C@H](CCC(=O)O)NC(=O)[C@H](CCC(=O)O)NC(=O)CNC(=O)[C@H](CCC(=O)O)NC(=O)[C@H](CC(C)C)NC(=O)[C@H](CC(C)C)NC(=O)[C@H](CCCCN)NC(=O)[C@@H](N)CCCNC(N)=O)C(=O)N[C@@H](CO)C(=O)N[C@@H](CC(C)C)C(=O)N1CCC[C@H]1C(=O)N[C@@H](CC(C)C)C(=O)O [XKLLEGEESRISLPL] | 853 nM | 1890 nM | – | –
2 | CC(C)C[C@H](NC(=O)[C@H](C)NC(=O)[C@H](CC(=O)O)NC(=O)[C@@H](NC(=O)[C@H](CCC(=O)O)NC(=O)[C@H](CS)NC(=O)[C@@H](NC(=O)[C@H](CC(C)C)NC(=O)[C@H](CO)NC(=O)[C@H](CCC(N)=O)NC(=O)[C@@H](NC(=O)[C@H](CCC(N)=O)NC(=O)[C@@H](N)CCCNC(N)=O)C(C)C)[C@@H](C)O)C(C)C)C(=O)N[C@@H](CCCCN)C(=O)NCC(=O)O [XQVQSLTCEVDALKG] (H-[Cit]QVQSLTCEVDALKG-OH) | 5110 nM | 15500 nM | – | –
3 | CC(C)C[C@H](NC(=O)[C@H](CC(C)C)NC(=O)[C@H](CCCNC(=N)N)NC(=O)[C@@H](NC(=O)CNC(=O)[C@@H]1CCCN1C(=O)[C@@H](NC(=O)[C@H](CO)NC(=O)[C@H](CO)NC(=O)[C@@H](N)CCCNC(N)=O)C(C)C)C(C)C)C(=O)N[C@@H](CCC(N)=O)C(=O)N[C@@H](CC(=O)O)C(=O)N[C@@H](CO)C(=O)N[C@H](C(=O)N[C@@H](CC(=O)O)C(=O)O)C(C)C [XSSVPGVRLLQDSVD] (H-[Cit]SSVPGVRLLQDSVD-OH) | – | – | 533 nM | 9620 nM
4 | CC(C)C[C@H](NC(=O)[C@H](C)NC(=O)[C@H](CO)NC(=O)CNC(=O)[C@H](CC(C)C)NC(=O)[C@H](CO)NC(=O)[C@H](Cc1ccc(O)cc1)NC(=O)[C@@H](NC(=O)[C@@H](N)CCCNC(N)=O)[C@@H](C)O)C(=O)N[C@@H](CCCNC(=N)N)C(=O)N1CCC[C@H]1C(=O)N[C@@H](CO)C(=O)N[C@H](C(=O)N[C@@H](CO)C(=O)N[C@@H](CCCNC(=N)N)C(=O)O)[C@@H](C)O [XTYSLGSALRPSTSR] (H-[Cit]TYSLGSALRPSTSR-OH) | – | – | 53 nM | 4770 nM

Second part, the compound after the results:

Row | IC50 [1, 3] | IC50 [2, 4] | IC50 [1, 5] | IC50 [2, 5] | SMILES
5 | – | – | 31 nM | 338 nM | CC(C)C[C@H](NC(=O)[C@H](CCCNC(=N)N)NC(=O)[C@@H](NC(=O)[C@H](C)NC(=O)[C@H](CO)NC(=O)[C@H](CO)NC(=O)[C@H](CCCNC(=N)N)NC(=O)[C@@H](NC(=O)[C@H](C)NC(=O)[C@@H](N)Cc1ccc(O)cc1)[C@@H](C)O)C(C)C)C(=O)N[C@@H](CCCNC(N)=O)C(=O)N[C@@H](CO)C(=O)N[C@@H](CO)C(=O)N[C@H](C(=O)N1CCC[C@H]1C(=O)O)C(C)C [YATRSSAVRLXSSVP] (H-YATRSSAVRL[Cit]SSVP-OH)
6 | – | – | 41 nM | 3220 nM | CC(C)C[C@H](NC(=O)[C@H](CCCNC(N)=O)NC(=O)[C@@H](NC(=O)[C@H](C)NC(=O)[C@H](CO)NC(=O)[C@H](CO)NC(=O)[C@H](CCCNC(=N)N)NC(=O)[C@@H](NC(=O)[C@H](C)NC(=O)[C@@H](N)Cc1ccc(O)cc1)[C@@H](C)O)C(C)C)C(=O)N[C@@H](CCCNC(=N)N)C(=O)N[C@@H](CO)C(=O)N[C@@H](CO)C(=O)N[C@H](C(=O)N1CCC[C@H]1C(=O)O)C(C)C [YATRSSAVXLRSSVP] (H-YATRSSAV[Cit]LRSSVP-OH)
7 | – | – | 12 nM | 3720 nM | CC(C)C[C@H](NC(=O)[C@H](CCCNC(=N)N)NC(=O)[C@@H](NC(=O)[C@H](C)NC(=O)[C@H](CO)NC(=O)[C@H](CO)NC(=O)[C@H](CCCNC(N)=O)NC(=O)[C@@H](NC(=O)[C@H](C)NC(=O)[C@@H](N)Cc1ccc(O)cc1)[C@@H](C)O)C(C)C)C(=O)N[C@@H](CCCNC(=N)N)C(=O)N[C@@H](CO)C(=O)N[C@@H](CO)C(=O)N[C@H](C(=O)N1CCC[C@H]1C(=O)O)C(C)C [YATXSSAVRLRSSVP] (H-YAT[Cit]SSAVRLRSSVP-OH)
8 | – | – | 292 nM | 1110 nM | CC(C)C[C@H](NC(=O)[C@H](CC(=O)O)NC(=O)[C@H](C)NC(=O)[C@H](Cc1ccccc1)NC(=O)[C@H](CCCCN)NC(=O)[C@H](CO)NC(=O)[C@H](CCCCN)NC(=O)[C@@H](N)Cc1ccc(O)cc1)C(=O)N[C@@H](CO)C(=O)N[C@@H](CCC(=O)O)C(=O)N[C@@H](C)C(=O)N[C@@H](C)C(=O)N[C@@H](CC(N)=O)C(=O)N[C@@H](CCCNC(N)=O)C(=O)N[C@@H](CC(N)=O)C(=O)O [YKSKFADLSEAANXN] (H-YKSKFADLSEAAN[Cit]N-OH)
9 | – | – | 334 nM | 6870 nM | CSCC[C@H](NC(=O)[C@H](CCCNC(=N)N)NC(=O)[C@H](CCCNC(=N)N)NC(=O)[C@@H](N)Cc1ccc(O)cc1)C(=O)N[C@@H](Cc1ccccc1)C(=O)NCC(=O)NCC(=O)N1CCC[C@H]1C(=O)NCC(=O)N[C@H](C(=O)N[C@@H](C)C(=O)N[C@@H](CO)C(=O)N[C@@H](CCCNC(N)=O)C(=O)N1CCC[C@H]1C(=O)N[C@@H](CO)C(=O)O)[C@@H](C)O [YRRMFGGPGTASXPS] (H-YRRMFGGPGTAS[Cit]PS-OH)
